Non-standard residues stand in square brackets, D forms with d. Residues, ends and D or L forms follow the SMILES beside them. *: point of attachment. Nle = CCCC[C@H](N)C(=O)O; Cbz = O=C(OCc1ccccc1)*
Key:
Assay type in all cases: cell-based
T47D cells = assay: Annexin V staining after GSI1
Method: (§1) We next did Annexin V staining which is a marker of apoptosis. Cells were treated with GSI1 for 0, 7, 24 and 48 hours. After trypsinizing, the cells were washed with PBS 5 times and then treated with RNAase (100 μg/ml) for 20 mins then propidium iodide was added at 50 μg/ml per 1×10^7 cells, and incubated overnight at 4° C. The samples were then filtered through a 70 μm mesh and run on a FACS with the following settings: Forward scatter 113, side scatter 356 and PE setting 380. Although there was an increase in staining indicating apoptosis, this was only approximately 10%. For example, in MDA-MB-231 cells there was a 5% increase in Annexin V staining after 7 hours of treatment and in T47D and MCF-7 cells there was an 8% increase in Annexin V staining. We have repeated these experiments with full cell cycle analysis at 7, 24 and 48 h post treatment and again detect apoptosis but […]. […] Nevertheless it is likely that cell proliferation is inhibited via another mechanism as opposed to the induction of cellular death.

MCF-7 cells = assay: Annexin V staining after GSI1
Method: as §1

MDA-MB-231 cells = assay: Annexin V staining after GSI1; conditions: after 7 hours of treatment
Method: as §1

[1] = test system: GS components, Notch 1, Actin and Lamin A/C in a single breast cancer cell line; assay: Western blot of protein levels after GSI1; conditions: 750 nM GSI1 vs DMSO control
Method: Western blot analysis of GS components, Notch 1, Actin and Lamin A/C in response to DMSO control (1) or 750 nm GSI1 (2). Tubulin was used as a loading control.
FIG. 10 illustrates the effect of GSI1 on the protein levels of the GS components and of Notch 1, Actin and Lamin A/C in a single breast cancer cell line. Shown, are Western blots of the proteins in reponse to treatment with GSI1 (750 nM) or DMSO control. All antibodies were from Abcam unless otherwise stated. Notch1 (Mouse) 1:500, Nicastrin rabbit 1:500, Pen-2 rabbit 1:1000, Presenilin, Goat 1:200, APH-1A Rabbit, 1:500, APH-1B Rabbit, 1:1000, Actin Mouse, 1:20,000(Santa Cruz), Tubulin, Mouse, 1:1000 (Sigma), Lamin NC 1:5000 (Santa Cruz). Secondary Antibodies used were goat anti mouse horseradish peroxidase (Sigma) 1:5000, goat anti-rabbit horseradish peroxidase (Sigma 1:10000) and donkey anti-goat horseradish peroxidase (Sigma 1:5000). Although GSI1 had some effects on protein expression these were marginal apart from Notch 1.

[2] = test system: MDA-MB-231, T47-D and MCF-7 breast cancer cell lines; assay: Proliferation of breast cancer cell lines treated with GSIs for 72 h, Coulter Counter cell count; conditions: tested 10 nM to 50 μM
Method: Graphs illustrating the effects of three GSIs: (A) DAPT (N-[N-(3,5-Difluorophenacetyl-L-alanyl)]-S-phenylglycine t-butyl ester), (B) Compound E ((2S)-2-{[(3,5-Difluorophenyl)acetyl]amino}-N-[(3S)-1-methyl-2-oxo-5-phenyl-2,3-dihydro-1H-1,4-benzodiazepin-3-yl]propanamide) and (C) GSI1 (Z-Leu-Leu-Nle-CHO) on proliferation in three breast cancer cell lines (MDA-MB-231, T47-D and MCF-7 cells). Cells were treated with the GSIs at different concentrations for 72 hours and the number of cells counted.
FIG. 6 illustrates the effect of three GSIs, DAPT, Compound E and GSI1 on proliferation in three breast cancer cell lines, MDA-MB-231 [Oestrogen receptor (ER) negative, epidermal growth factor receptor (EGFR) and HER-2 strongly positive, increasingly metastatic T47-D-MCF-MDA], T47-D [weakly ER positive, progesterone receptor positive, strongly EGFR (HER-1, cERB-B1) positive and HER-2(c-ERB-B2) positive] and MCF-7 [highly ER positive and very weakly EGFR and HER-2 positive if at all]. The breast cancer cell lines were treated with the 3 GSIs for 72 h. 20,000 cells were seeded into 24 well plates in triplicate and allowed to adhere overnight. […] After 72 hours the media was removed and the adherent cells removed and counted on a Coulter Counter. […]

MCF-10A cells = assay: SRB proliferation of GSI1 on normal cell line MCF-10A
Method: Graphs illustrating the effects of GSI1, at different concentrations, on proliferation in four normal cell lines: (A) MCF-10A cells, (B) MCF-10A, (C) L226U19 cells and (D) L226TS4 cells.
The effect of GSI1 on proliferation in normal cell lines was investigated as, illustrated in FIG. 8. […] Therefore we repeated in all 3 normal lines (MCF-10A, L226U19 and L226TS4) at much higher concentrations (10 μM, 20 μM, 40 μM, 60 μM and 80 μM). 10 μM GSI1 was required to kill the MCF-10A cells and over 40 μM GSI1 was required to kill the two L226 cell lines. MCF-10A cells were cultured in DMEM (Invitrogen 11995-040), […] Insulin (Sigma, 11882), 20 ng/ml hEGF (Trevigen, 3443-050-01), 100 ng/ml Cholera Toxin (Sigma, C8052), 500 ng/ml Hydrocortisone (Sigma, H0888), 5% Horse Serum +100U/m1 penicillin, 0.1 mg/ml streptomycin, 2 mM L-glutamine at 37° C. in 5% CO2. L226U19 and TS4 cells were cultured in DME: F12 plus 10% FCS, 5 μg/ml insulin, 1 μg/ml Hydrocortisone, 10 ng/ml hEGF, 10 ng/ml Cholera toxin 100 U/ml penicillin, 0.1 mg/ml streptomycin, 2 mM L-glutamine at 37° C. in 5% CO2.

Question: `CCCC[C@@H](C=O)NC(=O)[C@H](CC(C)C)NC(=O)[C@H](CC(C)C)NC(=O)OCc1ccccc1` [GSI1, Z-Leu-Leu-Nle-CHO] (Cbz-Leu-Leu-[Nle]-aldehyde) was tested. Which “increase in Annexin V staining” value (T47D cells) did it give?
Answer: 8%

Question: And the “increase in Annexin V staining” value (MCF-7 cells)?
Answer: 8%

Question: What about the “increase in Annexin V staining” value (MDA-MB-231 cells) of the same molecule?
Answer: 5%

Question: And the “Notch 1 protein expression” value [1]?
Answer: markedly upregulated

Question: And the “protein expression other than Notch 1 (GS components, Actin, Lamin A/C)” value [1]?
Answer: only marginal effects on protein expression

Question: What about the “concentration that virtually eliminates all the cells” value [2] of the same molecule?
Answer: 1 µM

Question: And the effect on proliferation (MCF-10A cells; GSI1 100 nM to 10 μM)?
Answer: no effect on proliferation

Question: And the “concentration required to kill the cells” value (MCF-10A cells; repeat at 10-80 μM)?
Answer: 10 µM
